{
  "source": "patent US11285119B2",
  "about": "“Anti-inflammatory composition” (NEOPHARM CO., LTD., priority 2016, dated 2022)",
  "key": {"[1]": {"tested_on": "IL-8", "test": "Anti-inflammatory effect: IL-8 expression in atopic dermatitis-induced 3D culture tissue (immunohistochemistry)", "assay_type": "cell-based", "conditions": "compared with the skin model in which atopic dermatitis was induced, 72 hours, quantified immunohistochemistry (FIG. 2), read-out: IL-8 inhibitory effect", "method": "(§1) In order to measure the anti-inflammatory efficacy, atopic dermatitis was induced with respect to IL-8 and IL-17A, which are inflammation-inducing cytokines, and expression amounts thereof were measured.\n(§2) In order to induce atopic dermatitis, the 3D culture tissue (EpiDerm Full Thickness 400, sold by MatTek) media containing Poly (I:C), TNF-α, IL-4 and IL-13 were used, and treated for 72 hours with N-(2-hydroxyethyl)octanamide at a final concentration of 100 μM. Then, the 3D culture tissue was immobilized on formalin to make a paraffin block, and the degree of expression of inflammation-inducing cytokine was evaluated.\n(§3) In FIG. 1, AD represents a skin model in which atopic dermatitis was induced, and the anti-inflammatory effect was evaluated based on the expression amounts of IL-8 and IL-17A.\n(§4) Further, the inhibitory effect of each cytokine was quantified based on the results obtained through the immunohistochemistry obtained in FIG. 1, and shown in FIG. 2."}, "[2]": {"tested_on": "human fibroblast (ATCC 2076)", "test": "Confirmation of cytotoxicity (MTT cell viability)", "assay_type": "cell-based", "conditions": "for Cell viability (%): human fibroblast, MTT", "method": "The cell viability for human fibroblast (ATCC 2076) was measured using the anti-inflammatory composition prepared in the following Examples.\nThe human fibroblast (ATCC 2076) with a concentration of 5×10^4 cells/ml was inoculated into a 24-well culture plate of Iscove's Modified Dulbecco's Medium (IMDM, GIBCO) containing 10% bovine serum. […] Then, the supernatant was removed, the cells were washed with 200 μl of 5% phosphate buffered saline (PBS), 1.0 ml of MTT solution was added to each well, and after 4 hours, and the MTT was removed. Next, 1.0 ml of DMSO was added to each well, and incubation was performed overnight at 37° C. The absorbance at 570 nm was measured to determine the cell viability using Equation 1 below, and results thereof are shown in Table 1 below. Here, as a negative control group, a test group in which the active ingredient was not used was adopted. Cell viability (%)=(A570λvalue/B570λvalue)×100 [Equation 1]\nA: Absorbance value at 570 nm of Example\nB: Absorbance value at 570 nm of negative control group"}, "[3]": {"tested_on": "atopic dermatitis", "test": "Atopic dermatitis improvement effect (EASI score) in pediatric patients", "assay_type": "in vivo, human", "conditions": "30 pediatric patients with atopic dermatitis, twice a day for 4 weeks", "method": "In order to measure atopic dermatitis improvement effect, the anti-inflammatory compositions were prepared according to the following Examples. Here, the atopic dermatitis improvement effect was measured using an eczema area severity index (EASI) score. 30 pediatric patients with atopic dermatitis were treated twice a day for 4 weeks, and then effects on atopic symptoms were measured."}, "[4]": {"tested_on": "IL-17A", "test": "Anti-inflammatory effect: IL-17A expression in atopic dermatitis-induced 3D culture tissue (immunohistochemistry)", "assay_type": "cell-based", "conditions": "compared with the skin model in which atopic dermatitis was induced, 72 hours, quantified immunohistochemistry (FIG. 2), read-out: IL-17A inhibitory effect", "method": "as §1, §2, §3, §4"}},
  "data": [
    {"compound": "CCCCC(CC)C(=O)NC(CO)CO", "note": "(stereo not shown) [Example 1, N-(1,3-dihydroxypropan-2-yl)-2-ethylhexanamide]", "values": [
      {"measurement": "inhibition at 100 µM", "setting": "[1]", "result": "≥ 48.5", "unit": "%"},
      {"measurement": "Cytotoxicity", "setting": "[2]; in the concentration range of the evaluation method", "result": "no cytotoxicity"},
      {"measurement": "Cell viability (%)", "setting": "[2]; used amount 0.00064 μM", "result": 110, "unit": "%"},
      {"measurement": "Cell viability (%)", "setting": "[2]; used amount 0.0032 μM", "result": 106, "unit": "%"},
      {"measurement": "Cell viability (%)", "setting": "[2]; used amount 0.016 μM", "result": 99, "unit": "%"},
      {"measurement": "Cell viability (%)", "setting": "[2]; used amount 0.08 μM", "result": 100, "unit": "%"},
      {"measurement": "Cell viability (%)", "setting": "[2]; used amount 0.4 μM", "result": 98, "unit": "%"},
      {"measurement": "Cell viability (%)", "setting": "[2]; used amount 2 μM", "result": 101, "unit": "%"},
      {"measurement": "Cell viability (%)", "setting": "[2]; used amount 10 μM", "result": 101, "unit": "%"},
      {"measurement": "Cell viability (%)", "setting": "[2]; used amount 50 μM", "result": 101, "unit": "%"},
      {"measurement": "Cell viability (%)", "setting": "[2]; used amount 250 μM", "result": 108, "unit": "%"},
      {"measurement": "Atopic dermatitis improvement effect (EASI score)", "setting": "[3]", "result": "significant numerical decrease"},
      {"measurement": "inhibition at 100 µM", "setting": "[4]", "result": "≥ 58.9", "unit": "%"}
    ]}
  ]
}
